From patent publication US7649012B2, “Compounds, pharmaceutical compositions containing same, and methods of use for same” (FASgen, Inc., priority 2002, dated 2010)
Converted amounts (≈) assume the structure as drawn. Like-named read-outs stand apart in the source and are kept apart here.

Tests used:
purified human FAS = molecular target: T1, purified human FAS (Homo sapiens, UniProt P49327); assay: Measurement of FAS enzymatic activity (NADPH oxidation), IC50; format: biochemical
T1 construct: Human FAS was purified from cultured ZR-75-1 human breast cancer cells; endogenous in cells; host or cells: ZR-75-1 human breast cancer cells (ATCC); endogenous enzyme purified by PEG precipitation and Mono Q anion exchange
T1 sequence (P49327 whole entry): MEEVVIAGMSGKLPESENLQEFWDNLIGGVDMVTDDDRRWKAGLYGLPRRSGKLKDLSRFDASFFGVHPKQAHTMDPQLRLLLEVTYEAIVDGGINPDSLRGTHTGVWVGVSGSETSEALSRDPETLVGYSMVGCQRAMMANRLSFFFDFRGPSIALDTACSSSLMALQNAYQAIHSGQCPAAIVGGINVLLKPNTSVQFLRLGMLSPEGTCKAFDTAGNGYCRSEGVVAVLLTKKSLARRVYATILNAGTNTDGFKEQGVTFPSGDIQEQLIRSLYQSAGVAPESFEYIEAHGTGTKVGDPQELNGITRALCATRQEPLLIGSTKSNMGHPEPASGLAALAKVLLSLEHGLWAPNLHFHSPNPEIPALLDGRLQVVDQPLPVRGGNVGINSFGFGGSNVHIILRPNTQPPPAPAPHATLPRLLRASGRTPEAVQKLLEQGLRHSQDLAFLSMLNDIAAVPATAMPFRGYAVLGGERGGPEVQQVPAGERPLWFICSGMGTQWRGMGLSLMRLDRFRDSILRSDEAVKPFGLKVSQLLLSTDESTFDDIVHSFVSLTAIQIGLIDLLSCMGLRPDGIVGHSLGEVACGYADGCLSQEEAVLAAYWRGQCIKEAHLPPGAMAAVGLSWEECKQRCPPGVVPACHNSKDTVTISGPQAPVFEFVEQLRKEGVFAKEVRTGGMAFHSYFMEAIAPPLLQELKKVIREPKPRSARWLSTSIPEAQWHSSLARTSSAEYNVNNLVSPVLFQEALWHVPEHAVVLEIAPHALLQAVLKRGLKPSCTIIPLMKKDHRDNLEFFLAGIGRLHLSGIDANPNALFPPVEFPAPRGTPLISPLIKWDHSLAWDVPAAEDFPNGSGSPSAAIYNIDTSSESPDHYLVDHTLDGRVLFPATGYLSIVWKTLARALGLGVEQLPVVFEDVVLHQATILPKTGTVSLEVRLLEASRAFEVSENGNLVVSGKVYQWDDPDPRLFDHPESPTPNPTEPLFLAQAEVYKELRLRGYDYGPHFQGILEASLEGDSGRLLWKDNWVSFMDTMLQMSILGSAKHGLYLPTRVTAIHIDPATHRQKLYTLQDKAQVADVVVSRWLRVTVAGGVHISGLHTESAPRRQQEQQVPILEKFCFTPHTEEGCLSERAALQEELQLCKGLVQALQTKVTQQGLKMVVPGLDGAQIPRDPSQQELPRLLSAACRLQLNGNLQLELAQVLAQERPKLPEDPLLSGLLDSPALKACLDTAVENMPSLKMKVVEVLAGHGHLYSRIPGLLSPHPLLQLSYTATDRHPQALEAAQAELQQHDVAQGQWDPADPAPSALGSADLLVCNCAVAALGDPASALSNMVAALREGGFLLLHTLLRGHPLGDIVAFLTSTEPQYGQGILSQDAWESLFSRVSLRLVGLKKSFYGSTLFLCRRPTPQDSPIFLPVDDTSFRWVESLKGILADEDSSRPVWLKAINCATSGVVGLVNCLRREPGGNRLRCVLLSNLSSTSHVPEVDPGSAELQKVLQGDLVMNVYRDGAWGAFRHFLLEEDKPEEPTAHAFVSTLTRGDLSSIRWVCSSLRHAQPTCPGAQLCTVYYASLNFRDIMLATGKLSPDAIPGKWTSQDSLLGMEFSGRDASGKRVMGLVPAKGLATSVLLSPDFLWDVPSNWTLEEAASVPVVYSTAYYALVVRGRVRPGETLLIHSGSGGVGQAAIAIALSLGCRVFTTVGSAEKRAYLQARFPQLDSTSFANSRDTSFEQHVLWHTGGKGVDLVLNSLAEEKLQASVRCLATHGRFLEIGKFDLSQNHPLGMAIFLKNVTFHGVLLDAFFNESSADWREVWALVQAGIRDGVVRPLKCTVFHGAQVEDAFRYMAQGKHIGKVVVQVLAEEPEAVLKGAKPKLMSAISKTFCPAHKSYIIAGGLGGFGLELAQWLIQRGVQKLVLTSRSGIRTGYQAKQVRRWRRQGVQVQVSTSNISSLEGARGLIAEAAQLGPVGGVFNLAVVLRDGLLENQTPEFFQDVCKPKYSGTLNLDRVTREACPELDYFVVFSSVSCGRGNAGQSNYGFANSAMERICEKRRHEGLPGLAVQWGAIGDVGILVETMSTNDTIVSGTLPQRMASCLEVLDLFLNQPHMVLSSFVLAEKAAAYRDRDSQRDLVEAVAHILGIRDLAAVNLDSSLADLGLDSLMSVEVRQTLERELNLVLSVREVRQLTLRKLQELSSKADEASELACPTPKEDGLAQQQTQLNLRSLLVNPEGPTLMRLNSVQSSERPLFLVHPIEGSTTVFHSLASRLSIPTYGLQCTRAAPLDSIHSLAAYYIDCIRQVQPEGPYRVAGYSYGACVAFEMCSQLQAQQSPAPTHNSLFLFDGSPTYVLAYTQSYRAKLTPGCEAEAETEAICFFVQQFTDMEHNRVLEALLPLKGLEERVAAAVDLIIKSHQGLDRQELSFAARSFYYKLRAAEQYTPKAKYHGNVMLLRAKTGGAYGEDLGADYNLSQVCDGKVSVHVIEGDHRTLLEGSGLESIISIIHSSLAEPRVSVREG
Protocol: Human FAS was purified from cultured ZR-75-1 human breast cancer cells obtained from the American Type Culture Collection. The procedure, adapted from Linn et al., 1981, and Kuhajda et al., 1994, utilizes hypotonic lysis, successive polyethyleneglycol (PEG) precipitations, and anion exchange chromatography. […] The lysate is centrifuged in JA-20 rotor (Beckman) at 20,000 rpm for 30 minutes at 4° C. and the supernatant is brought to 42 ml with lysis buffer. A solution of 50% PEG 8000 in lysis buffer is added slowly to the supernatant to a final concentration of 7.5%. After rocking for 60 minutes at 4° C., the solution is centrifuged in JA-20 rotor (Beckman) at 15,000 rpm for 30 minutes at 4° C. […] After the rocking and centrifugation is repeated as above, the pellet is resuspended overnight at 4° C. in 10 ml of Buffer A (20 mM K2HPO4, pH 7.4). After 0.45 μM filtration, the protein solution is applied to a Mono Q 5/5 anion exchange column (Pharmacia). The column is washed for 15 minutes with buffer A at 1 ml/minute, and bound material is eluted with a linear 60-ml gradient over 60 minutes to 1 M KCl. […] FAS protein concentration is determined using the Coomassie Plus Protein Assay Reagent (Pierce) according to manufacturer's specifications using BSA as a standard. This procedure results in substantially pure preparations of FAS (>95%) as judged by Coomassie-stained gels. FAS activity is measured by monitoring the malonyl-CoA dependent oxidation of NADPH spectrophotometrically at OD340 in 96-well plates (Dils et al and […] et al, 1975). […] For each experiment, cerulenin (Sigma) is run as a positive control along with DMSO controls, inhibitors, and blanks (no FAS enzyme) all in duplicate. The assay is performed on a Molecular Devices SpectraMax Plus Spectrophotometer. The plate containing FAS, buffers, inhibitors, and controls are placed in the spectrophotometer heated to 37° C. Using the kinetic protocol, the wells are blanked on duplicate wells containing 100 μl of 100 mM K2HPO4, pH 6.5 and the plate is read at OD340 at 10 sec intervals for 5 minutes to measure any malonyl-CoA independent oxidation of NADPH. The plate is removed from the spectrophotometer and malonyl-CoA (67.4 μM, final concentration per well) and […] (61.8 μM, final concentration per well) are added to each well except to the blanks. The plate is read again as above with the kinetic protocol to measure the malonyl-CoA dependent NADPH oxidation. The difference between the Δ OD340 for the malonyl-CoA dependent and non-malonyl-CoA dependent NADPH oxidation is the specific FAS activity. Because of the purity of the FAS preparation, non-malonyl-CoA dependent NADPH oxidation is negligible. […] Graphs of Δ OD340 versus time are plotted by the SOFTmax PRO software (Molecular Devices) for each compound concentration.

[1] = system: MCF-7 human breast cancer cells; assay: XTT cytotoxicity assay; format: cell-based; settings: MCF7, MCF-7, 72 hours, some cells marked (M)
Protocol: The XTT assay is a non-radioactive alternative for the [^51 Cr] release cytotoxicity assay. XTT is a tetrazolium salt that is reduced to a formazan dye only by metabolically active, viable cells. The reduction of XTT is measured spectrophotometrically as OD490-OD650.
To measure the cytotoxicity of specific compounds against cancer cells, 9×10^3 MCF-7 human breast cancer cells, obtained from the American Type Culture Collection are plated per well in 96 well plates in DMEM medium with 10% fetal bovine serum, insulin, penicillin, and streptomycin. Following overnight culture at 37° C. and 5% CO2, the compounds to be tested, dissolved in DMSO, are added to the wells in 1 μl volume at the following concentrations: 80, 40, 20, 10, 5, 2.5, 1.25, and 0.625 μg/ml in triplicate. Additional concentrations are tested if required. 1 μl of DMSO is added to triplicate wells are the vehicle control. C75 is run at 40, 20, […], and 5 μg/ml in triplicate as positive controls. After 72 hours of incubation, cells are incubated for 4 hours with the XTT reagent as per manufacturer's instructions (Cell Proliferation Kit II (XTT) Roche). Plates are read at OD490 and OD650 on a Molecular Devices SpectraMax Plus Spectrophotometer. Three wells containing the XTT reagent without cells serve as the plate blank. XTT data are reported as OD490-OD650-Averages and standard error of the mean are computed using SOFTmax Pro software (Molecular Dynamics).
The IC50 for the compounds is defined as the concentration of drug leading to a 50% reduction in OD490-OD650 compared to controls. The OD490-OD650 are computed by the SOFTmax PRO software (Molecular Devices) for each compound concentration. IC50 is calculated by linear regression, plotting the FAS activity as percent of control versus drug concentrations. Linear regression, best-fit line, r^2, and 95% confidence intervals are determined using Prism Version 3.0 (Graph Pad Software).

[2] = system: MCF-7 human breast cancer cells; assay: Crystal violet cell growth assay; format: cell-based; settings: MCF7, MCF-7, 72 hours, read-out: Cr. Violet(IC50)
Protocol: The crystal violet assay measure cell growth but not cytotoxicity. This assay employs crystal violet staining of fixed cells in 96-well plates with subsequent solubilization and measurement of OD490 on a spectrophotometer. The OD490 corresponds to cell growth per unit time measured. Cells are treated with the compounds of interest or vehicle controls and IC50 for each compound is computed.
To measure the cytotoxicity of specific compounds against cancer cells, 5×10^4 MCF-7 human breast cancer cells, obtained from the American Type Culture Collection are plated per well in 24 well plates in DMEM medium with 10% fetal bovine serum, penicillin, and streptomycin. Following overnight culture at 37° C. and 5% CO2, the compounds to be tested, dissolved in DMSO, are added to the wells in 1 μl volume at the following concentrations: 50, 40, 30, 20, and 10 μg/ml in triplicate. Additional concentrations are tested if required. 1 μl of DMSO is added to triplicate wells are the vehicle control. C75 is run at 10, and 5 μg/ml in triplicate as positive controls.
After 72 hours of incubation, cells are stained with 0.5 ml of Crystal Violet stain (0.5% in 25% methanol) in each well. After 10 minutes, wells are rinsed, air dried, and then solubilized with 0.5 ml 10% sodium dodecylsulfate with shaking for 2 hours.

[3] = Weight loss screen in Balb/C mice; format: in vivo; settings: Mus musculus, read-out: Weight Loss; for change in vivo at 60 mg/kg: ip, 60 mg/kg intraperitoneally
Protocol: Balb/C mice (Jackson Labs) are utilized for the initial weight loss screening. Animals are housed in temperature and 12 hour day/night cycle rooms and fed mouse chow and water ad lib. Three mice are utilized for each compound tested with vehicle controls in triplicate per experiment. For the experiments, mice are housed separately for each compound tested three mice to a cage. […] Mice are observed and weighed daily; average weights and standard errors are computed with Excel (Microsoft). The experiment continues until treated animals reach their pretreatment weights. […]

CCCCCCCCC1(C)SC(=O)C(C)=C1O (centres unmarked)
IC50 (purified human FAS): 192 µM | IC50 [1]: 48 ± 1.4 µg/mL (≈ 187 µM) | IC50 [2]: 29.4 ± 4.3 µg/mL (≈ 115 µM) | change in vivo at 30 mg/kg ([3]; 24 h): 1% | change in vivo at 60 mg/kg ([3]; 24 h, day1): 0%

C/C=C/C(C)=C/C1(C)SC(=O)C=C1O (centres unmarked)
IC50 (purified human FAS): 339 µM | IC50 [1]: > 80 µg/mL | IC50 [2]: > 50 µg/mL | change in vivo at 60 mg/kg ([3]; 24 h, day1): 4.1%

C=CCNC(=O)COC1=CC(=O)S[C@]1(C)CCCCCCCCCC (racemic)
FAS(IC50) (purified human FAS): Neg | IC50 [1]: 12.1 ± 0.6 µg/mL (≈ 32.9 µM) | IC50 [2]: 10.4 µg/mL (≈ 28.3 µM) | change in vivo at 15 mg/kg ([3]; 24 h): 0% | change in vivo at 30 mg/kg ([3]; 48 h): 1.8%

C=CCC1(C)C(=O)S[C@](C)(CCCCCCCC)C1=O (mixture of isomers)
FAS(IC50) (purified human FAS): Neg | IC50 [1]: 50.4 ± 4.7 µg/mL | IC50 [2]: > 50 µg/mL

CCCCCCCC[C@@]1(C)SC(=O)C(C(=O)C(F)(F)F)=C1O (racemic)
IC50 (purified human FAS; unit inferred): 121 µM | IC50 [1]: 18.4 ± 2.7 µg/mL (≈ 54.4 µM) | IC50 [2]: 45.3 µg/mL (≈ 134 µM)

CCCCCCCCC1(C)SC(=O)C=C1OC(=O)OCC (centres unmarked)
IC50 (purified human FAS; unit inferred): 9.54 µM | IC50 [1]: 15.1 ± 2.6 µg/mL (≈ 48 µM) | IC50 [2]: 31.4 ± 5.7 µg/mL (≈ 99.9 µM) | change in vivo at 30 mg/kg ([3]; 96 h, 30 mg/kg, day4): 1.3% | change in vivo at 60 mg/kg ([3]; 48 h, day2): 6.9%

CCCCCCCCC1(C)SC(=O)C=C1OCC(=O)NNC(=O)c1ccco1 (centres unmarked)
FAS(IC50) (purified human FAS): Neg | IC50 [1]: 26.4 µg/mL (≈ 64.6 µM) | IC50 [2]: 26.3 µg/mL (≈ 64.4 µM) | change in vivo at 60 mg/kg ([3]; 96 h, day4): 6.3%

CCCCCCCCC1(C)SC(=O)C(C(C)O)=C1O (centres unmarked)
IC50 (purified human FAS): 11.5 µM | IC50 [1]: 23.9 ± 2.9 µg/mL (≈ 83.4 µM) | IC50 [2]: 19.5 µg/mL (≈ 68.1 µM)

COC1=CC(=O)SC1(C)Cc1ccccc1 (centres unmarked)
FAS(IC50) (purified human FAS): Neg | IC50 [1]: 61.3 ± 3.9 µg/mL (≈ 262 µM) | IC50 [2]: 20.9 µg/mL (≈ 89.2 µM)

CCCCCCCC[C@@]1(C)SC(=O)C=C1OC(=O)OC (racemic)
IC50 (purified human FAS): 5.99 µM | IC50 [1]: 21.6 ± 0.2 µg/mL (≈ 71.9 µM) | IC50 [2]: 41.4 ± 14.1 µg/mL (≈ 138 µM) | change in vivo at 60 mg/kg ([3]; 24 h, day1): 7.65%

CCCCCC[C@@]1(C)SC(=O)C=C1OCC(=O)NCCCBr (racemic)
FAS(IC50) (purified human FAS): Neg | IC50 [1]: 21.2 ± 1.1 µg/mL (≈ 54 µM) | IC50 [2]: 12.6 ± 3.7 µg/mL (≈ 32.1 µM)

CCCCCCCC[C@@]1(C)SC(=O)C(C(C)=O)=C1O (racemic)
FAS(IC50) (purified human FAS): Neg | IC50 [1]: 125 ± 0.7 µg/mL (≈ 439 µM) | IC50 [2]: 8.4 µg/mL (≈ 29.5 µM) | change in vivo at 60 mg/kg ([3]; 48 h, day2): 8.2%

C=CCN(C)C(=O)COC1=CC(=O)SC1(C)CCCCCCCC (centres unmarked)
FAS(IC50) (purified human FAS): Neg | IC50 [1]: 9.2 ± 2.2 µg/mL (≈ 26 µM) | IC50 [2]: 9 µg/mL (≈ 25.5 µM) | change in vivo at 60 mg/kg ([3]; 72 h, day3): 1.5%

CCCCCCCCC1(C)SC(=O)C=C1OCc1ccccc1 (centres unmarked)
FAS(IC50) (purified human FAS): Neg | IC50 [1]: 29.2 µg/mL (≈ 87.8 µM) | IC50 [2]: 9.5 µg/mL (≈ 28.6 µM) | change in vivo at 60 mg/kg ([3]; 72 h, day3): 5.2%

CCCCCCCC[C@@]1(C)SC(=O)C=C1OCCCCCl (racemic)
FAS(IC50) (purified human FAS): Neg | IC50 [1]: 35.3 ± 2.2 µg/mL (≈ 106 µM) | IC50 [2]: 10.3 ± 0.3 µg/mL (≈ 30.9 µM)

CCCCCCCC[C@@]1(C)SC(=O)C=C1OC(=O)NC(C)C (racemic)
IC50 (purified human FAS): 246 µM | IC50 [1]: 45.7 ± 25.9 µg/mL (≈ 140 µM) | IC50 [2]: 22.5 µg/mL (≈ 68.7 µM)

CCCCCCCCC1(C)SC(=O)C=C1OC (centres unmarked)
FAS(IC50) (purified human FAS): Neg | IC50 [1]: 16.4 ± 2.3 µg/mL (≈ 64 µM) | IC50 [2]: 21.4 µg/mL (≈ 83.5 µM) | change in vivo at 60 mg/kg ([3]; 24 h, day1): 6.1%

CCCCCC[C@@]1(C)SC(=O)C=C1OCCCCCl (racemic)
FAS(IC50) (purified human FAS): Neg | IC50 [1]: 20.8 ± 0.9 µg/mL (≈ 68.2 µM) | IC50 [2]: 16.3 µg/mL (≈ 53.5 µM)

CC/C=C/C=C/C1(C)SC(=O)C=C1O (centres unmarked)
IC50 (purified human FAS): 238 µM | IC50 [1]: > 80 µg/mL | IC50 [2]: > 50 µg/mL | change in vivo at 60 mg/kg ([3]; 120 h, day5): 3.2%

CCCCCC[C@@]1(C)SC(=O)C=C1OCC(=O)OCC (racemic)
FAS(IC50) (purified human FAS): Neg | IC50 [1]: 39.6 ± 2.2 µg/mL (≈ 132 µM) | IC50 [2]: 17 µg/mL (≈ 56.6 µM)

CCCCCCCC[C@@]1(C)SC(=O)C=C1OCC(=O)O
FAS(IC50) (purified human FAS): Neg | IC50 [1]: 50.3 ± 2.8 µg/mL (≈ 167 µM) | IC50 [2]: 33.7 µg/mL (≈ 112 µM)

CCCCCCCC[C@@]1(C)SC(=O)C=C1OC(=O)CC (racemic)
FAS(IC50) (purified human FAS): Neg | IC50 [1]: 26.8 ± 0.6 µg/mL (≈ 89.8 µM) | IC50 [2]: 38.6 µg/mL (≈ 129 µM)

CCCCCC[C@@]1(C)SC(=O)C=C1OCC(=O)NCC(=O)OC (racemic)
FAS(IC50) (purified human FAS): Neg | IC50 [1]: 40.5 ± 5.1 µg/mL (≈ 118 µM) | IC50 [2]: 32.5 ± 11.7 µg/mL (≈ 94.6 µM)

CCCCCCCCC1(C)SC(=O)C(C)=C1OC (centres unmarked)
FAS(IC50) (purified human FAS): Neg | IC50 [1]: 17.3 ± 5.9 µg/mL (≈ 64 µM) | IC50 [2]: 15.9 ± 1.9 µg/mL (≈ 58.8 µM)
